Experimental findings from patent US8933113B2 (Merck Sharp & Dohme Corp., priority 2011, dated 2015) are described below.

In this assay the target is T1, full-length human Mineralocorticoid Receptor (MR) (Homo sapiens, UniProt P08235).
T1 construct: host or cells: PathHunter CHO-K1 cells
T1 sequence (P08235 1-984): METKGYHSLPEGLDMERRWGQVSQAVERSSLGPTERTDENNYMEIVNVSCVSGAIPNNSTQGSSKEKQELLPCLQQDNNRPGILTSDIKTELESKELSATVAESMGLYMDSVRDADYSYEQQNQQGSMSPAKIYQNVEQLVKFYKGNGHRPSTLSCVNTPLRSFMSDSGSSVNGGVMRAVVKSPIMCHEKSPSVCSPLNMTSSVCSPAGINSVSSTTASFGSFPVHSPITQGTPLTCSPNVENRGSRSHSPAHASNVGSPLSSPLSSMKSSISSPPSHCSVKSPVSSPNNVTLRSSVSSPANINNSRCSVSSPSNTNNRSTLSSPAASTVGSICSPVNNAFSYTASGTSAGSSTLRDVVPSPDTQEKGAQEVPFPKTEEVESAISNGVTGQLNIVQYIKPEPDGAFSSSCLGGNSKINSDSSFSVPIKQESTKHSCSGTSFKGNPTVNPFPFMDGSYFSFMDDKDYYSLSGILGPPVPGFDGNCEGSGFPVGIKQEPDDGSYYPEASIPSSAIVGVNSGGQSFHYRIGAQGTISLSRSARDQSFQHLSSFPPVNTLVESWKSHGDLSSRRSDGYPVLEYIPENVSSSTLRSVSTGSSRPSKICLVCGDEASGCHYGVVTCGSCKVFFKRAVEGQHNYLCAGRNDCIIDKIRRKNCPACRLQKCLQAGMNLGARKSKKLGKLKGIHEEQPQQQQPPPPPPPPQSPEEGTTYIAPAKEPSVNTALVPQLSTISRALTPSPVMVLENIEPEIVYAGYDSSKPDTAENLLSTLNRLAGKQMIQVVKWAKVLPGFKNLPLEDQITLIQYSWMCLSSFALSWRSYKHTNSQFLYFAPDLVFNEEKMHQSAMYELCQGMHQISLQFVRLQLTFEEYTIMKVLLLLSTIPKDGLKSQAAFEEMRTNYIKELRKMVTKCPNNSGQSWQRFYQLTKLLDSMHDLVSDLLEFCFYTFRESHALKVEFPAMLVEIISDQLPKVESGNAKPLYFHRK
The experiment in a line: human MR NH Pro assay (PathHunter Protein:Protein interaction assay), MR antagonist activity. Format: cell-based. To be noted: PathHunter CHO-K1 cells overexpressing human MR; aldosterone about 0.3 nM; 6 hours at 37° C.; luminescence; read-out: Primary Assay IP rating (IP = inflection point for a given dose-response titration curve). The text has this:
The activity of the compounds of the present invention regarding mineralocorticoid receptor antagonism can be evaluated using the following assay.
Assessment of MR Potency in HMR NH Pro Assay
The human MR NH Pro assay is a commercially available PathHunter™ Protein:Protein interaction assay (DiscoveRx; http://www.discoverx.com/nhrs/prod-nhrs.php) that measures the ability of compounds to antagonize full-length human Mineralocorticoid Receptor (MR) binding to a coactivator peptide.
6. Test compounds are titrated starting at 4.4 mM, 10-point titration in 1:3 dilution.
3. Add 5 μL 6× agonist (final aldosterone concentration should be about 0.3 nM to about 1.0 nM) to all wells (using the PlateMate Plus.)
• (ThermoFisher) (except those wells in columns 23 and 24) 4. Add 5 uL of assay media to all wells in column 23 and 24. 5. Incubate 6 hrs at 37° C., 5% CO2. 6. Add 15 uL 3× DiscoveRx detection reagent to each well. 7. Incubate 1 hour at room temperature (keep plates stored in the dark). 8. Read plates on Envision (PerkinElmer) luminesence plate reader and analyze using ADA.
For `COC(=O)C(c1ccc(F)cc1Cl)n1ccc2cccc(F)c21` (centres unmarked) [Compound 15, methyl (2-chloro-4-fluorophenyl)(7-fluoro-1H-indol-1-yl)acetate], the IC50 lay within 500 to 5000 nM.
For the compound `COC(=O)C(c1ccc(F)cc1Cl)n1ccc2cccc(OCc3ccccc3)c21` (centres unmarked) [Compound 16, methyl [7-(benzyloxy)-1H-indol-1-yl](2-chloro-4-fluorophenyl)acetate], the IC50 was in the range of 500 to 5000 nM.
Consider `CC(C)(C)OC(=O)C(c1ccc(Cl)cc1)n1ccc2c(NS(C)(=O)=O)cccc21` (centres unmarked) [Compound 18, tert-butyl (4-chlorophenyl){4-[(methylsulfonyl)amino]-1H-indol-1-yl}acetate], for which the IC50 lay within 500 to 5000 nM.
Then `COC(=O)C(c1ccc(Cl)cc1)n1ncc2c(NS(C)(=O)=O)cccc21` (centres unmarked) [Compound 19, methyl (4-chlorophenyl){4-[(methylsulfonyl)amino]-1H-indazol-1-yl}acetate], with 500 to 5000 nM; and `COC(=O)C(c1ccc(Br)cc1)n1ccc2c(NS(C)(=O)=O)cccc21` (centres unmarked) [Compound 24, methyl (4-bromophenyl){4-[(methylsulfonyl)amino]-1H-indol-1-yl}acetate], with 500 to 5000 nM; and `CCC(C(=O)OC(C)(C)C)(c1ccc(Cl)cc1)n1ccc2c(NS(C)(=O)=O)cccc21` (centres unmarked) [Compound 26, tert-Butyl 2-(4-chlorophenyl)-2-{4-[(methylsulfonyl)amino]-1H-indol-1-yl}butanoate], with 100 to 500 nM.
Consider `CC(C)(C)OC(=O)C(CC#N)(c1ccc(Cl)cc1)n1ccc2c(NS(C)(=O)=O)cccc21` (centres unmarked) [Compound 27, tert-Butyl 2-(4-chlorophenyl)-3-cyano-2-{4-[(methylsulfonyl)amino]-1H-indol-1-yl}propanoate], for which the IC50 was in the range of 100 to 500 nM.
Under `COC(=O)C(C)(c1ccc(Cl)cc1Cl)n1ccc2c(NS(C)(=O)=O)cccc21` (centres unmarked) [Compound 29, Methyl 2-(2,4-dichlorophenyl)-2-{4-[(methylsulfonyl)amino]-1H-indol-1-yl}propanoate] stands 500 to 5000 nM.
Under `CCC(C(=O)OC)(c1ccc(Cl)cc1Cl)n1ccc2c(NS(C)(=O)=O)cccc21` (centres unmarked) [Compound 30, Methyl 2-(2,4-dichlorophenyl)-2-{4-[(methylsulfonyl)amino]-1H-indol-1-yl}butanoate] stands 100 to 500 nM; under `CCC(C(=O)OC)(c1ccc(F)cc1Cl)n1ccc2c(NS(C)(=O)=O)cccc21` (centres unmarked) [Compound 31, Methyl 2-(2-chloro-4-fluorophenyl)-2-{4-[(methylsulfonyl)amino]-1H-indol-1-yl}butanoate], 100 to 500 nM.
Then `CCC(C(=O)OC)(c1ccc(Cl)cc1)n1ncc2c(NS(C)(=O)=O)cccc21` (centres unmarked) [Compound 32, Methyl 2-(4-chlorophenyl)-2-{4-[(methylsulfonyl)amino]-1H-indazol-1-yl}butanoate], with 100 to 500 nM; and `C=CCC(C(=O)OC)(c1ccc(Cl)cc1)n1ccc2c(NS(C)(=O)=O)cccc21` (centres unmarked) [Compound 33, Methyl 2-(4-chlorophenyl)-2-{4-[(methylsulfonyl)amino]-1H-indol-1-yl}pent-4-enoate], with 100 to 500 nM.
`COC(=O)CC(C(=O)OC)(c1ccc(Cl)cc1)n1ccc2c(NS(C)(=O)=O)cccc21` (centres unmarked) [Compound 35, Dimethyl 2-(4-chlorophenyl)-2-{4-[(methylsulfonyl)amino]-1H-indol-1-yl}butanedioate]: the IC50 is < 100 nM.
Under `CC[C@](C(N)=O)(c1ccc(Cl)cc1)n1ccc2c(NS(C)(=O)=O)cccc21` [Compound 40, (R)-2-(4-chlorophenyl)-2-{4-[(methylsulfonyl)amino]-1H-indol-1-yl}butanamide] stands 100 to 500 nM; under `CC[C@](C(=O)NC1CC1)(c1ccc(Cl)cc1)n1ccc2c(NS(C)(=O)=O)cccc21` [Compound 41, (R)-2-(4-chlorophenyl)-N-cyclopropyl-2-{4-[(methylsulfonyl)amino]-1H-indol-1-yl}butanamide], 100 to 500 nM; under `CCC(C(=O)NCCOC)(c1ccc(Cl)cc1)n1ccc2c(NS(C)(=O)=O)cccc21` (centres unmarked) [Compound 42, 2-(4-chlorophenyl)-N-(2-methoxyethyl)-2-{4-[(methylsulfonyl)amino]-1H-indol-1-yl}butanamide], 500 to 5000 nM.
Under `CC[C@](C(=O)NCc1ccccc1)(c1ccc(Cl)cc1)n1ccc2c(NS(C)(=O)=O)cccc21` [Compound 43, (R)—N-benzyl-2-(4-chlorophenyl)-2-{4-[(methylsulfonyl)amino]-1H-indol-1-yl}butanamide] stands 500 to 5000 nM; under `CC[C@](C(=O)NC(C)C)(c1ccc(Cl)cc1)n1ccc2c(NS(C)(=O)=O)cccc21` [Compound 44, (R)-2-(4-chlorophenyl)-N-(1-methylethyl)-2-{4-[(methylsulfonyl)amino]-1H-indol-1-yl}butanamide], 100 to 500 nM; under `CCNC(=O)C(CC)(c1ccc(Cl)cc1)n1ccc2c(NS(C)(=O)=O)cccc21` (centres unmarked) [Compound 46, 2-(4-chlorophenyl)-N-ethyl-2-{4-[(methylsulfonyl)amino]-1H-indol-1-yl}butanamide], 100 to 500 nM.
Then `CCC(C(=O)NCCC#N)(c1ccc(Cl)cc1)n1ccc2c(NS(C)(=O)=O)cccc21` (centres unmarked) [Compound 48, 2-(4-chlorophenyl)-N-(2-cyanoethyl)-2-{4-[(methylsulfonyl)amino]-1H-indol-1-yl}butanamide], with 500 to 5000 nM; and `CCC(C(=O)NCCF)(c1ccc(Cl)cc1)n1ccc2c(NS(C)(=O)=O)cccc21` (centres unmarked) [Compound 49, 2-(4-chlorophenyl)-N-(2-fluoroethyl)-2-{4-[(methylsulfonyl)amino]-1H-indol-1-yl}butanamide], with 100 to 500 nM.
In the case of `CCC(C(=O)NCCc1ccccc1)(c1ccc(Cl)cc1)n1ccc2c(NS(C)(=O)=O)cccc21` (centres unmarked) [Compound 50, 2-(4-chlorophenyl)-2-{4-[(methylsulfonyl)amino]-1H-indol-1-yl}-N-(2-phenylethyl)butanamide], the IC50 fell in the range of 500 to 5000 nM.
Then `CCC(C(=O)NCC#N)(c1ccc(Cl)cc1)n1ccc2c(NS(C)(=O)=O)cccc21` (centres unmarked) [Compound 51, 2-(4-chlorophenyl)-N-(cyanomethyl)-2-{4-[(methylsulfonyl)amino]-1H-indol-1-yl}butanamide], with < 100 nM.
Then `CCC(C(=O)NCC(=O)OC)(c1ccc(Cl)cc1)n1ccc2c(NS(C)(=O)=O)cccc21` (centres unmarked) [Compound 52, methyl N-[2-(4-chlorophenyl)-2-{4-[(methylsulfonyl)amino]-1H-indol-1-yl}butanoyl]glycinate], with 100 to 500 nM.
Turning to `CNC(=O)C(CC#N)(c1ccc(Cl)cc1)n1ccc2c(NS(C)(=O)=O)cccc21` (centres unmarked) [Compound 53, 2-(4-chlorophenyl)-3-cyano-N-methyl-2-{4-[(methylsulfonyl)amino]-1H-indol-1-yl}propanamide], the IC50 lay within 100 to 500 nM.
Then `CS(=O)(=O)Nc1cccc2c1ccn2C(CC#N)(C(=O)NCc1ccccc1)c1ccc(Cl)cc1` (centres unmarked) [Compound 54, N-benzyl-2-(4-chlorophenyl)-3-cyano-2-{4-[(methylsulfonyl)amino]-1H-indol-1-yl}propanamide], with 100 to 500 nM; and `CS(=O)(=O)Nc1cccc2c1ccn2C(CC#N)(C(=O)NCC(F)(F)F)c1ccc(Cl)cc1` (centres unmarked) [Compound 55, 2-(4-chlorophenyl)-3-cyano-2-{4-[(methylsulfonyl)amino]-1H-indol-1-yl}-N-(2,2,2-trifluoroethyl)propanamide], with 100 to 500 nM.
Under `CNC(=O)C(CC1CC1)(c1ccc(Cl)cc1)n1ccc2c(NS(C)(=O)=O)cccc21` (centres unmarked) [Compound 56, 2-(4-chlorophenyl)-3-cyclopropyl-N-methyl-2-{4-[(methylsulfonyl)amino]-1H-indol-1-yl}propanamide] stands 100 to 500 nM; under `CC[C@@](c1ccc(Cl)cc1)(c1noc(C)n1)n1ccc2c(NS(C)(=O)=O)cccc21` [Compound 57], < 100 nM.
